{
  "source": "paper PMC7934871",
  "about": "(JCI Insight, 2021)",
  "key": {"HCT116 cells": {"test_system": "HCT116 cells", "assay": "Cell proliferation assay (CellTiter-Glo)", "assay_type": "cell-based, human", "conditions": "HCT116, 10 μg/mL (approximately 1 μM) every day, day 7, CellTiter-Glo", "description": "Figure 3 PS-acet.-STAT3 peptide inhibits STAT3 activity and downregulates the expression of STAT3 targets. (A) Downregulation of STAT3 activity and its downstream target proteins shown in human HCT116 colorectal cancer cells by Western blotting (data represent 1 of the 3 experiments, n = 3). PO-acet.-STAT3 and PS-STAT3-K685R peptides were used in parallel as controls. (B) STAT3 inhibition regulated the expression of proliferation and apoptotic genes, assessed by real-time quantitative PCR. Data present mean ± SD, n = 3 independent experiments, 1-way ANOVA; ***P < 0.005; **P < 0.01. […] For p53 promoter assay, data represent 3 replicates in 3 independent experiments (n = 9). For cell proliferation assay, data represent 3 independent experiments. SD is shown (n = 3). One-way ANOVA; ***P < 0.005; **P < 0.01.\nHCT116 cells were seeded in a 96-well plate at a density of 6000/well. Starting the following day, cells were treated every day with 10 μg/mL (approximately 1 μM) PO- or PS-peptides. On day 7, cell proliferation was measured based on ATP production using bioluminescence detection kit for ATP measurement (CellTiter-Glo, Promega), according to manufacturer’s instruction."}, "exportin 7": {"target": "T1, exportin 7 (Homo sapiens, UniProt Q9UIA9)", "T1 construct": "endogenous in cells; host or cells: U251", "T1 sequence (Q9UIA9 whole entry)": "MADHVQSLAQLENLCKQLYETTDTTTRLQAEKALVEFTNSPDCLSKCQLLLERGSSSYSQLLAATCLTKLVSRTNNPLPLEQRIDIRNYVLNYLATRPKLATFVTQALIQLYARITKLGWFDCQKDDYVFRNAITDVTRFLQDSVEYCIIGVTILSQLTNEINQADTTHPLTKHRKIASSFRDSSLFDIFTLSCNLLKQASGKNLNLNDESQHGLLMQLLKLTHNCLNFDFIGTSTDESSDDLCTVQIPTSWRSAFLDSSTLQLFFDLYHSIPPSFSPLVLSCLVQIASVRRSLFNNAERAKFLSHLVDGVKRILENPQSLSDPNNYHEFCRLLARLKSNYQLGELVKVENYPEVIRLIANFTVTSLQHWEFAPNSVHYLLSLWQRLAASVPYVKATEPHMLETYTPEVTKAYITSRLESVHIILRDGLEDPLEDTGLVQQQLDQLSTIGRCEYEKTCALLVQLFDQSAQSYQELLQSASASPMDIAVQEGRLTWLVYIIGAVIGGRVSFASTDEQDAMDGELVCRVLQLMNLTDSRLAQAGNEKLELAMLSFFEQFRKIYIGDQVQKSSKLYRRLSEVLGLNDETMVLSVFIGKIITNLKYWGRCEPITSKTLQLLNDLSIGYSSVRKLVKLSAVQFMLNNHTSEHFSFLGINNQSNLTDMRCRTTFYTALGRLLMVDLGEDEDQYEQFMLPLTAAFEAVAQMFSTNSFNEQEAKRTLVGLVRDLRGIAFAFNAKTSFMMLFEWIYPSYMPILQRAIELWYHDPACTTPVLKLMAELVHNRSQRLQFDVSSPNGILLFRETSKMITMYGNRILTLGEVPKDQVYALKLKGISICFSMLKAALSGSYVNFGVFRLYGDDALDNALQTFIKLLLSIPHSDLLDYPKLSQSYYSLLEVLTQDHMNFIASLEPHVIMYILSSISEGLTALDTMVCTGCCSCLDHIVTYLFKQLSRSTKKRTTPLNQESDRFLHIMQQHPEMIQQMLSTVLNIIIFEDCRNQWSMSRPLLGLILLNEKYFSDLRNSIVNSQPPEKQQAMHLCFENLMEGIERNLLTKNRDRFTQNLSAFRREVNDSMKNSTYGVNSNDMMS", "assay": "Immunoprecipitation of FAM-labeled peptide and Western blotting, exportin 7", "assay_type": "binding", "conditions": "anti-FITC (FAM) immunoprecipitation, Western blotting, U251 cells", "experimental": "Data are representative of 3 independent experiments (n = 3).\nWhole cell lysates or tissue homogenates were prepared by using RIPA lysis buffer (50 mM Tris at pH 7.4, 150 mM NaCl, 1 mM EDTA, 0.5% NP-40, 1 mM NaF, 15% glycerol, and 20 mM β-glycerophosphate). A protease inhibitor cocktail (Mini Protease Inhibitor Cocktail; Roche) and a tyrosine phosphatase inhibitor, sodium orthovanadate (Na3VO4, 1 mM), were added freshly to the lysis buffer. Protein amounts were determined by BCA using a Thermo Fisher Scientific kit. Normalized protein amounts were subjected to an SDS-PAGE and transferred onto a nitrocellulose membrane for Western blotting. Proteins were visualized with a chemiluminescent detection kit (Pierce, Thermo Fisher Scientific). The protein levels for STAT1 (sc-346, E-23), STAT3 (sc-482, C-20), STAT5 (sc-74442, A-9), Crm1 (exportin 1) (sc-5595, H-300), CAS (exportin 2) (sc-271537, H-2), exportin 5 (sc-66885, H-300), and exportin 7 (sc-98639, H-82) were determined using antibodies from Santa Cruz Biotechnology Inc. Anti–exportin 3 (exportin T, 630622, LOS1 05-1525), anti–exportin 4 (3499-1), and anti–exportin 6 (11408-1-AP) were from MilliporeSigma, Epitomics, and Proteintech, respectively. […]"}},
  "data": [
    {"substance": "PDIPKEEAFGK685(Ac)YCRPESQEHPC-linker-T*C*C*A*T*G*A*G*C*T*T*C*C*T*G*A*T*G*C*T [PS-acet.-STAT3 peptide]", "values": [
      {"measurement": "cell proliferation", "setting": "HCT116 cells", "value": "decrease"},
      {"measurement": "binding to exportin 7", "setting": "exportin 7", "value": "bound"}
    ]}
  ]
}
